The values below come from patent publication US8846947B2, “Benzimidazoles and related analogs as sirtuin modulators” (GlaxoSmithKline LLC, priority 2008, dated 2014).

The assay addresses T1, SIRT1 (Homo sapiens, UniProt Q96EB6).
T1 sequence (Q96EB6 1-747): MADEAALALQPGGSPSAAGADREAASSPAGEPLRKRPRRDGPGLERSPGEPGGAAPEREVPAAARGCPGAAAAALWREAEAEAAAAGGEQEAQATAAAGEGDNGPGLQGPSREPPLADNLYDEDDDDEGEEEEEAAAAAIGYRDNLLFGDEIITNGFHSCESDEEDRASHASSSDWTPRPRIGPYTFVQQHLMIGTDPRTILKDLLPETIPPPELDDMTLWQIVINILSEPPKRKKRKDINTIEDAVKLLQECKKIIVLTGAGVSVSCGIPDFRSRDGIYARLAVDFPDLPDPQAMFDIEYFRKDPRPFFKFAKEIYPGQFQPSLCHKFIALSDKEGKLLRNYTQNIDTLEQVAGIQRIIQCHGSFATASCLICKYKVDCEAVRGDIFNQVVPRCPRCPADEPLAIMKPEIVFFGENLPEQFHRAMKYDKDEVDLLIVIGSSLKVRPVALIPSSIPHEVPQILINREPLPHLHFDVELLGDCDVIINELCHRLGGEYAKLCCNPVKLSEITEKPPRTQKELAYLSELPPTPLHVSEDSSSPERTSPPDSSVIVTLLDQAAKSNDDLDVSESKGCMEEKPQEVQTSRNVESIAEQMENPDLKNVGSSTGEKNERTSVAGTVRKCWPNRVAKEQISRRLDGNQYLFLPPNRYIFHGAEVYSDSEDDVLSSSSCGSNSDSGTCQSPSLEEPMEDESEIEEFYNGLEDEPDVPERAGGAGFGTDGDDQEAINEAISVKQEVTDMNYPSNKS
The assay is described as follows: Mass spectrometry based SIRT1 deacetylase activation assay (acetylated p53-derived peptide substrate). Type of assay: biochemical.

Where [1] appears, read: 0.5 μM peptide substrate, 120 μM βNAD+, 10 nM SIRT1, 25 minutes at 25° C.
The mark [2] stands for this setting: 0.5 μM peptide substrate, 120 μM βNAD+, 10 nM SIRT1, 25 min at 25° C.
The mark [3] stands for this setting: 0.5 μM peptide substrate, 120 μM βNAD+, 10 nM SIRT1, 25 min at 25° C., read-out: EC1.5.

Where two headings read alike, the source gives them in different places.

As to `O=C(Nc1nccs1)c1cncc2[nH]c(-c3ccccc3C(F)(F)F)nc12` [Compound 341, N-(thiazol-2-yl)-2-(2-(trifluoromethyl)phenyl)-3H-imidazo[4,5-c]pyridine-7-carboxamide], the EC1.5 result is recorded as “A (EC1.5<1.0 uM)” and the “Fold Act. (percent maximum fold activation)” value is on record as “A (Fold activation >200%)”.
The matching figures for `O=C(Nc1ccncc1)c1cccc2[nH]c(-c3ccnn3-c3ccccc3)nc12` [Compound 310]: “A (EC1.5<1.0 uM)” and “A (Fold activation >200%)”.
As to `Cc1nc(C)c(-c2nc3c(C(=O)Nc4nc(CN5CCOCC5)cs4)cccc3[nH]2)s1` [Compound 848], under setting [1], the EC1.5 result is reported as “A (EC1.5<1.0 uM)” and the “Fold Act. (percent maximum fold activation)” value was “A (Fold activation >200%)”.
In the case of `Cc1cc(NC(=O)c2cccc3[nH]c(-c4cc(F)ccc4C(F)(F)F)nc23)no1` [Compound 455], the “Fold Act. (percent maximum fold activation)” value under setting [2] is recorded as “A (Fold activation >200%)”. Moreover, the EC1.5 under setting [3] was less than 1000 nM.
Turning to `O=C(Nc1nccs1)c1cc(N2CCOCC2)cc2[nH]c(-c3cc(F)ccc3C(F)F)nc12` [Compound 768], under setting [1], the EC1.5 entry is on record as “A (EC1.5<1.0 uM)” and the “Fold Act. (percent maximum fold activation)” value was “A (Fold activation >200%)”.
Turning to `O=C(Nc1ccccn1)c1cncc2[nH]c(-c3ccc(N4CCOCC4)cc3C(F)F)nc12` [Compound 806], under setting [1], the EC1.5 result is “A (EC1.5<1.0 uM)” and the “Fold Act. (percent maximum fold activation)” value is “A (Fold activation >200%)”.
As for `Cc1ccc(OCCN2CCOCC2)c(-c2nc3c(C(=O)Nc4ccccn4)cccc3[nH]2)c1` [Compound 546], the “Fold Act. (percent maximum fold activation)” value under setting [2] is “A (Fold activation >200%)”. The EC1.5 under setting [3] was in the range of 1000 to 25000 nM.
The matching figures for `CS(=O)(=O)c1cccc(-c2nc3c(C(=O)Nc4cccnc4)cccc3[nH]2)c1` [Compound 404]: “A (Fold activation >200%)” and less than 1000 nM.
For the compound `O=C(Nc1nccs1)c1cccc2[nH]c(-c3ccc(OCCN4CCOCC4)cc3)nc12` [Compound 339], the EC1.5 entry is on record as “A (EC1.5<1.0 uM)” and the “Fold Act. (percent maximum fold activation)” value was “A (Fold activation >200%)”.
For the compound `O=C(Nc1nccs1)c1cccc2[nH]c(-c3ccc(OCCN4CCOCC4)cc3C(F)F)nc12` [Compound 722], under setting [1], the EC1.5 entry was “A (EC1.5<1.0 uM)” and the “Fold Act. (percent maximum fold activation)” value is “A (Fold activation >200%)”.
As for `O=C(Nc1cccc(OC[C@@H](O)CO)c1)c1cccc2[nH]c(-c3cc(F)ccc3C(F)F)nc12` [Compound 720], under setting [1], the EC1.5 result is on record as “A (EC1.5<1.0 uM)” and the “Fold Act. (percent maximum fold activation)” value is listed as “A (Fold activation >200%)”.
On to `Cc1cnc(NC(=O)c2cccc3[nH]c(-c4cccc(N5CCOCC5)c4)nc23)s1` [Compound 396], for which the EC1.5 result is “A (EC1.5<1.0 uM)” and the “Fold Act. (percent maximum fold activation)” value is “A (Fold activation >200%)”.
As to `O=C(Nc1ccccn1)c1cccc2[nH]c(-c3cnccc3C(F)(F)F)nc12` [Compound 704], under setting [1], the EC1.5 entry is reported as “A (EC1.5<1.0 uM)” and the “Fold Act. (percent maximum fold activation)” value is listed as “A (Fold activation >200%)”.
`O=C(Nc1nccs1)c1cccc2[nH]c(-c3cc(F)ccc3OCCN3CCOCC3)nc12` [Compound 583]: the “Fold Act. (percent maximum fold activation)” value under setting [2] was “A (Fold activation >200%)”. In addition, the EC1.5 under setting [3] was 1000 to 25000 nM.
Regarding `O=C(Nc1ccccn1)c1cccc2[nH]c(-c3cccc(C(F)(F)F)c3)nc12` [Compound 233], the EC1.5 entry is “B (EC1.5 1-25 uM)” and the “Fold Act. (percent maximum fold activation)” value is listed as “A (Fold activation >200%)”.
In the case of `O=C(Nc1ccccc1OCC(O)CO)c1cccc2[nH]c(-c3cc(F)ccc3C(F)(F)F)nc12` (centres unmarked) [Compound 730], under setting [1], the EC1.5 result is “B (EC1.5 1-25 uM)” and the “Fold Act. (percent maximum fold activation)” value is recorded as “A (Fold activation >200%)”.
Turning to `O=C(Nc1nccs1)c1cccc2[nH]c(-c3ccccc3OC(F)(F)F)nc12` [Compound 305], the EC1.5 entry is “A (EC1.5<1.0 uM)” and the “Fold Act. (percent maximum fold activation)” value is recorded as “A (Fold activation >200%)”.
For the compound `O=C(Nc1ccc[n+]([O-])c1)c1cccc2[nH]c(-c3ccccc3C(F)(F)F)nc12` [Compound 336], the EC1.5 entry is recorded as “A (EC1.5<1.0 uM)” and the “Fold Act. (percent maximum fold activation)” value is reported as “A (Fold activation >200%)”.
Turning to `O=C(Nc1cccc2[nH]c(-c3ccccc3C(F)(F)F)nc12)c1cccnc1` [Compound 365], the EC1.5 result is recorded as “B (EC1.5 1-25 uM)” and the “Fold Act. (percent maximum fold activation)” value was “A (Fold activation >200%)”.
Turning to `Cc1ncsc1-c1nc2c(C(=O)Nc3nccs3)cccc2[nH]1` [Compound 293], the EC1.5 result is reported as “B (EC1.5 1-25 uM)” and the “Fold Act. (percent maximum fold activation)” value is on record as “A (Fold activation >200%)”.
With `O=C(Nc1cccc(CN2CCNCC2)n1)c1cccc2[nH]c(-c3ccccc3C(F)(F)F)nc12` [Compound 682], under setting [1], the EC1.5 result is on record as “A (EC1.5<1.0 uM)” and the “Fold Act. (percent maximum fold activation)” value was “A (Fold activation >200%)”.
For the compound `O=C(Nc1ccccn1)c1cccc2[nH]c(-c3ccc(-c4nnn[nH]4)cc3)nc12` [Compound 342], the EC1.5 entry was “A (EC1.5<1.0 uM)” and the “Fold Act. (percent maximum fold activation)” value is “A (Fold activation >200%)”.
Take `O=C(Nc1ccccn1)c1cc(N2CCOCC2)cc2[nH]c(-c3cc(F)ccc3C(F)(F)F)nc12` [Compound 645]: under setting [1], the EC1.5 entry was “A (EC1.5<1.0 uM)” and the “Fold Act. (percent maximum fold activation)” value was “A (Fold activation >200%)”.
Regarding `Cc1nc(-c2ccccc2)sc1-c1nc2c(C(=O)Nc3ccccn3)cccc2[nH]1` [Compound 409], the “Fold Act. (percent maximum fold activation)” value under setting [2] was “A (Fold activation >200%)”. Besides, under setting [3], the EC1.5 was less than 1000 nM.
As to `O=C(Nc1cccnc1)c1cccc2[nH]c(-c3ccc(OC4CCNCC4)cc3)nc12` [Compound 536], the “Fold Act. (percent maximum fold activation)” value under setting [2] is listed as “A (Fold activation >200%)”. In addition, the EC1.5 under setting [3] lay within 1000 to 25000 nM.
Turning to `O=C(Nc1cccc(OC[C@@H](O)CO)c1)c1cncc2[nH]c(-c3ccc(Cl)cc3C(F)(F)F)nc12` [Compound 738], under setting [1], the EC1.5 result is given as “A (EC1.5<1.0 uM)” and the “Fold Act. (percent maximum fold activation)” value is listed as “A (Fold activation >200%)”.
In the case of `Cc1nc(C)c(-c2nc3c(C(=O)Nc4ccc(OC[C@H](O)CO)cc4)cccc3[nH]2)s1` [Compound 798], under setting [1], the EC1.5 result is given as “A (EC1.5<1.0 uM)” and the “Fold Act. (percent maximum fold activation)” value is listed as “A (Fold activation >200%)”.
On to `Cc1cnc(NC(=O)c2cccc3[nH]c(-c4cccc(C(F)(F)F)c4)nc23)s1` [Compound 260], for which the EC1.5 result is recorded as “B (EC1.5 1-25 uM)” and the “Fold Act. (percent maximum fold activation)” value is “B (Fold Activation <200%)”.
Consider `CS(=O)(=O)c1ccc(-c2nc3c(C(=O)Nc4ccccn4)cccc3[nH]2)cc1` [Compound 406], for which the “Fold Act. (percent maximum fold activation)” value under setting [2] is reported as “A (Fold activation >200%)”. Further, the EC1.5 under setting [3] fell in the range of 1000 to 25000 nM.
`O=C(Nc1ccccn1)c1cccc2[nH]c(-c3cc(Cl)ccc3C(F)(F)F)nc12` [Compound 429]: the “Fold Act. (percent maximum fold activation)” value under setting [2] is listed as “B (Fold Activation <200%)”. Besides, under setting [3], the EC1.5 was greater than 25000 nM.
Regarding `COc1cc(C(=O)Nc2ccccn2)c2nc(-c3ccccc3C(F)(F)F)[nH]c2c1` [Compound 632, 6-methoxy-N-(pyridin-2-yl)-2-(2-(trifluoromethyl)phenyl)-1H-benzo[d]imidazole-4-carboxamide], under setting [1], the EC1.5 entry is “A (EC1.5<1.0 uM)” and the “Fold Act. (percent maximum fold activation)” value is “A (Fold activation >200%)”.
